# In patent US11253610B2, “Plant virus particles for delivery of antimitotic agents” (CASE WESTERN RESERVE UNIVERSITY, priority 2015, dated 2022):
# Numbered stars: 1 amine (or outer) side, 2 acyl side, 3 side chain; on linkers, the order of the positions; unused ones are H or OH. Square brackets hold non-standard residues; d marks the D form. Peptide text beside a SMILES is read from it. * marks the point of attachment. Dolaproine = CO[C@@H]([C@@H]1CCCN1)[C@@H](C)C(=O)O; Hexanoyl(6-maleimido) = O=C1C=CC(=O)N1CCCCCC(=O)*; Dil = CC[C@H](C)[C@H](NC)[C@@H](CC(=O)O)OC; PABC = O=C(OCc1ccc(N[*:1])cc1)[*:2]; X1 = C[C@@H](N*)[C@@H](O)c1ccccc1; Cit = NC(=O)NCCC[C@H](N)C(=O)O; NMeV = CN[C@H](C(=O)O)C(C)C
# What was measured:
# [1] = test system: Karpas 299 cells; assay: Cell viability assay (Alamar Blue); format: cell-based, human; conditions: 72 hours incubation, read-out: IC50 (drug concentration where half of the cells are killed)
# Experimental: Cell culture. Karpas 299 cells (ATCC) were maintained in RPMI-1640 at 37° C. in a 5% CO2 humidified atmosphere. The medium was supplemented with 20% (v/v) heat-inactivated fetal bovine serum (FBS), and 1% (v/v) penicillin-streptomycin. All reagents were obtained from Gibco.
# Cell viability assay. Cells at a concentration of 10,000 cells/mL were seeded in a sterile, tissue culture-treated, 96-well clear bottom plate for 24 hours at 37° C. in a 5% CO2 humidified atmosphere. Cells were then incubated with fresh media with 0.02 nM to 200 nM VcMMAE for 72 hours. At 92 hours, Alamar Blue (ThermoFisher) was added, and cell viability was measured at 96 hours according to the manufacturer's instructions using a fluorescence plate reader with […].
# To evaluate the efficacy of TMV-vcMMAE, cell viability assays were performed using Alamar Blue assay Alamar Blue reagent is primarily made of resazurin, a nontoxic cell permeable non-fluorescent blue molecule. […]
# Karpas 299 cells were seeded for 24 hours and then incubated with free vcMMAE or TMV-MMAE for 72 hours. At 92 hours, Alamar Blue was added and the cells fluorescence was measured after 4 hours of incubation at 540 nm excitation and 610 nm emission. The results for both free vcMMAE and TMV-MMAE are plotted in FIG. 4, and the IC50 values were calculated. […]
# [2] = vary with assay set up, time course and cell lines used; read-out: IC50 values in the literature; cited from earlier work
structure (smiles),measurement,setting,value
"CC[C@H](C)[C@@H]([C@@H](CC(=O)N1CCC[C@H]1[C@H](OC)[C@@H](C)C(=O)N[C@H](C)[C@@H](O)c1ccccc1)OC)N(C)C(=O)[C@@H](NC(=O)[C@H](C(C)C)N(C)C(=O)OCc1ccc(NC(=O)[C@H](CCCNC(N)=O)NC(=O)[C@@H](NC(=O)CCCCCN2C(=O)C=CC2=O)C(C)C)cc1)C(C)C [vcMMAE, valine-citrulline monomethyl auristatin E] ({Hexanoyl(6-maleimido)}-V[Cit][PABC][NMeV]V[Dil][Dolaproine]-X1)",IC50,[1],~25.8 nM
same,IC50,[2],~5 nM
